Patent US10106526B2, “Inhibitors of cyclin-dependent kinase 7 (CDK7)” (SYROS PHARMACEUTICALS, INC., priority 2014, dated 2018)

Experiments:
[1] = tested on: Jurkat cells; assay: Inhibition of proliferation of Jurkat cells (CellTiter-Glo, 72 hour); type: cell-based, human; settings: 10 μM to 316 pM
Procedure, shortened: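 Human T-cell leukemia Jurkat cells in RPMI 1640 with 10% FBS were exposed 72 h at 37 °C, 5% CO2 to compounds from 10 μM to 316 pM in 0.5-log steps. Anti-proliferative effect measured by CellTiter-Glo; IC50 reported in binned categories.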

[2] = target: T1, CDK7 (Homo sapiens, UniProt P50613); assay: CDK7 kinase activity, Adapta kinase assay (Life Technologies); type: biochemical; settings: Adapta kinase assay at Life Technologies; 10 μM down to 0.514 nM, 3-fold serial dilutions; read-out: CDK7 Inhibition (IC50)
T1 construct: purchased Life Technologies (Adapta kinase assay service)
Procedure, shortened: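 Adapta kinase activity assay run as a commercial service; substrates not specified here. Compounds tested in 3-fold serial dilutions from 10 μM down to 0.514 nM.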

[3] = target: CDK7/Cyclin H/MAT1 trimeric complex (Homo sapiens, UniProt P50613); assay: CDK7 kinase assay, Caliper/LabChip EZ Reader (Biortus Biosciences); type: biochemical; settings: CDK7/Cyclin H/MAT1 10 nM, ATP 2 mM, FAM-CDK7tide 2 μM, 30 min incubation, read-out: CDK7 Inhibition (IC50)
Procedure: Compounds of the invention were further assayed for CDK7 activity at Biortus Biosciences (Jiangyin, Jiangsu Province, P.R. of China) using a CDK7 kinase assay developed with a Caliper/LabChip EZ Reader (Perkin Elmer, Waltham, Mass.). […] The incubation period was chosen such that the total fraction of phosphorylated peptide product produced was <20% for the uninhibited kinase.

[4] = tested on: A673 cells; assay: Inhibition of proliferation of A673 cells (CyQUANT, 72 hour); type: cell-based, human; settings: 72 hour proliferation
Procedure, shortened: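 Human Ewing's sarcoma A673 cells in DMEM + 10% FBS + 1 mM sodium pyruvate, 37 °C, 5% CO2, exposed to compounds from 4 μM to 126.4 pM (0.5 log dilutions) for 72 h. Proliferation read by CyQUANT; IC50 reported as binned categories.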

Chain of CDK7/Cyclin H/MAT1 trimeric complex (P50613 whole entry): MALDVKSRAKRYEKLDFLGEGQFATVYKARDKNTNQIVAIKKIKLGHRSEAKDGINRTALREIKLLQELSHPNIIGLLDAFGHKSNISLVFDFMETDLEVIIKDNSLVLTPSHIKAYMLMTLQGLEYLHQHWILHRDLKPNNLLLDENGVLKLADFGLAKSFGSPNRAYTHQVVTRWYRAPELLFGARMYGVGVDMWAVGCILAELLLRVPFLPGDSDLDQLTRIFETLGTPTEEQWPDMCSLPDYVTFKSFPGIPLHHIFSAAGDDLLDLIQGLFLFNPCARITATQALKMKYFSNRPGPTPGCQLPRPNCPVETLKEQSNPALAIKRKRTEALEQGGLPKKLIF
Chain of CDK7/Cyclin H/MAT1 trimeric complex (P51946 whole entry partner): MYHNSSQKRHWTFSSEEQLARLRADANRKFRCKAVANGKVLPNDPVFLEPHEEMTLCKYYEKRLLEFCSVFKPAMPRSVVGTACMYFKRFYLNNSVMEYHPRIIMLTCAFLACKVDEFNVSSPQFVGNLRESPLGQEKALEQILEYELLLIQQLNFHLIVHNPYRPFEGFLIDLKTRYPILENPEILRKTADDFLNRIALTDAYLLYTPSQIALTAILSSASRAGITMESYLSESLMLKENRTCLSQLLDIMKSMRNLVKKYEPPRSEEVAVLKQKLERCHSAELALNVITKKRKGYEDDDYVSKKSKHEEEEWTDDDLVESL
Chain of CDK7/Cyclin H/MAT1 trimeric complex (P51948 whole entry partner): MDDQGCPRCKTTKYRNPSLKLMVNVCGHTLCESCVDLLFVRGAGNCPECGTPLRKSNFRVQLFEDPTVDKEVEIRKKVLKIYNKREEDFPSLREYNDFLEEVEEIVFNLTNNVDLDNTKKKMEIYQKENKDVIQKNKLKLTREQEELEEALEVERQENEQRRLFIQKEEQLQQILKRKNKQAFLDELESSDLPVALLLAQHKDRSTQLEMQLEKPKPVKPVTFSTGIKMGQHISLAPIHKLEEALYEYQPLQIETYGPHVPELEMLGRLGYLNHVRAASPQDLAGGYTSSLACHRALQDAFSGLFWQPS
T1 sequence (P50613 whole entry): as the sequence (P50613 whole entry) above
T1 sequence (P51946 whole entry partner): as the sequence (P51946 whole entry partner) above
T1 sequence (P51948 whole entry partner): as the sequence (P51948 whole entry partner) above

## C=CC(=O)N1CCC2(CC1)CN([C@H]1CCC[C@@H](Nc3ncc(Cl)c(-c4c[nH]c5ccccc45)n3)C1)C(=O)O2 [Compound 186]
[1]
  IC50: 500 to 5000 nM
[2]
  IC50: < 100 nM
[3]
  IC50: < 100 nM
[4]
  IC50: < 500 nM

## C=CC(=O)N1CCCC(C(=O)N[C@H]2CC[C@H](Nc3ncc(Cl)c(-c4c[nH]c5ccccc45)n3)CC2)C1 (stereo partly shown) [Compound 158, 1-acryloyl-N-((1r,4r)-4-(5-chloro-4-(1H-indol-3-yl)pyrimidin-2-ylamino)cyclohexyl)piperidine-3-carboxamide]
[1]; Homo sapiens
  IC50: 500 to 5000 nM
[2]
  IC50: < 100 nM
[3]
  IC50: < 100 nM

## CN(C)C/C=C/C(=O)N1CCC(O)(CN(C)[C@H]2CCC[C@@H](Nc3ncc(Cl)c(-c4c[nH]c5ccccc45)n3)C2)CC1 [Compound 228]
[1]
  IC50: 500 to 5000 nM
[2]
  IC50: < 100 nM
[3]
  IC50: < 100 nM
[4]
  IC50: < 500 nM

## CN(C)C/C=C/C(=O)N1CCC(C(=O)N2CC[C@@H](Nc3ncc(Cl)c(-c4c[nH]c5ccccc45)n3)C2)CC1 [Compound 213, (E)-1-[4-[(3R)-3-[[5-chloro-4-(1H-indol-3-yl)pyrimidin-2-yl]amino]pyrrolidine-1-carbonyl]-1-piperidyl]-4-(dimethylamino)but-2-en-1-One]
[1]; Homo sapiens
  IC50: > 5000 nM
[2]
  IC50: < 100 nM
[3]
  IC50: < 100 nM
[4]; Homo sapiens
  IC50: < 500 nM

## O=C(NC1CCCC(Nc2ncc(Cl)c(-c3cnn4ccccc34)n2)C1)C1CCN(C(=O)C=CCN2CCN(C3CC3)CC2)CC1 (stereo not shown) [Compound 223]
[1]
  IC50: > 5000 nM
[2]
  IC50: < 100 nM
[3]
  IC50: < 100 nM

## C=CC(=O)Nc1cnc(C(=O)N[C@H]2CCC[C@@H](Nc3ncc(Cl)c(-c4c[nH]c5ccccc45)n3)C2)nc1 [Compound 112, 5-acrylamido-N-((1S,3R)-3-(5-chloro-4-(1H-indol-3-yl)pyrimidin-2-ylamino)cyclohexyl)pyrimidine-2-carboxamide]
[1]; Homo sapiens
  IC50: > 5000 nM
[2]
  IC50: < 100 nM
[3]
  IC50: 100 to 1000 nM
[4]; Homo sapiens
  IC50: < 500 nM

## C=CC(=O)N1CCC(C(=O)N[C@H]2CCC[C@@H](Nc3ncc(Cl)c(-c4c[nH]c5ccccc45)n3)C2)CC1 [Compound 118, 1-acryloyl-N-((1S,3R)-3-(5-chloro-4-(1H-indol-3-yl)pyrimidin-2-ylamino)cyclohexyl)piperidine-4-carboxamide]
[1]; Homo sapiens
  IC50: < 500 nM
[2]
  IC50: < 100 nM
[3]
  IC50: < 100 nM
[4]; Homo sapiens
  IC50: < 500 nM

## C=CC(=O)N1CC(N(C)[C@H]2CCC[C@@H](Nc3ncc(Cl)c(-c4c[nH]c5ccccc45)n3)C2)C1 [Compound 224]
[1]; Homo sapiens
  IC50: > 5000 nM
[2]
  IC50: < 100 nM
[3]
  IC50: < 100 nM

## CN(C)C/C=C/C(=O)Nc1cnc(C(=O)N[C@H]2CCC[C@@H](Nc3ncc(Cl)c(-c4c[nH]c5ccccc45)n3)C2)nc1 [Compound 113, N-((1S,3R)-3-(5-chloro-4-(1H-indol-3-yl)pyrimidin-2-ylamino)cyclohexyl)-5-((E)-4-(dimethylamino)but-2-enamido)pyrimidine-2-carboxamide]
[1]; Homo sapiens
  IC50: < 500 nM
[2]
  IC50: < 100 nM
[3]
  IC50: < 100 nM
[4]; Homo sapiens
  IC50: < 500 nM

## C=CC(=O)N1CCC(CN[C@H]2CCC[C@@H](Nc3ncc(Cl)c(-c4c[nH]c5ccccc45)n3)C2)CC1 [Compound 124, 1-(4-(((1S,3R)-3-(5-chloro-4-(1H-indol-3-yl)pyrimidin-2-ylamino)cyclohexylamino)methyl)piperidin-1-yl)prop-2-en-1-One]
[1]; Homo sapiens
  IC50: > 5000 nM
[2]
  IC50: < 100 nM
[3]
  IC50: < 100 nM

## C=CC(=O)N1CCC[C@H]1C(=O)N[C@H]1CCC[C@@H](Nc2ncc(Cl)c(-c3c[nH]c4ccccc34)n2)C1 [Compound 115, (S)-1-acryloyl-N-((1S,3R)-3-(5-chloro-4-(1H-indol-3-yl)pyrimidin-2-ylamino)cyclohexyl)pyrrolidine-2-carboxamide]
[1]; Homo sapiens
  IC50: < 500 nM
[2]
  IC50: < 100 nM
[3]
  IC50: < 100 nM
[4]; Homo sapiens
  IC50: < 500 nM

## C=CC(=O)N1CCN(C2CCCC(Nc3ncc(Cl)c(-c4c[nH]c5ccccc45)n3)C2)CC1C (stereo not shown) [Compound 232]
[1]
  IC50: < 500 nM
[2]
  IC50: < 100 nM
[3]
  IC50: < 100 nM
[4]
  IC50: < 500 nM

## C=CC(=O)N1CCC(NC[C@H]2CCC[C@@H](Nc3ncc(Cl)c(-c4c[nH]c5ccccc45)n3)C2)CC1 [Compound 127, 1-[4-[[(1S,3R)-3-[[5-chloro-4-(1H-indol-3-yl)pyrimidin-2-yl]amino]cyclohexyl]methylamino]-1-piperidyl]prop-2-en-1-One]
[1]; Homo sapiens
  IC50: > 5000 nM
[2]
  IC50: < 100 nM
[3]
  IC50: < 100 nM
[4]; Homo sapiens
  IC50: < 500 nM

## C=CC(=O)N1CCN(C2CCCC(Nc3ncc(Cl)c(-c4c[nH]c5ccccc45)n3)C2)CC1C (stereo not shown) [Compound 229]
[1]
  IC50: 500 to 5000 nM
[2]
  IC50: < 100 nM
[3]
  IC50: < 100 nM
[4]
  IC50: < 500 nM

## CN(C)CC=CC(=O)N1CCN(C2CCCC(Nc3ncc(Cl)c(-c4c[nH]c5ccccc45)n3)C2)CC1 (stereo not shown) [Compound 237]
[1]
  IC50: < 500 nM
[2]
  IC50: < 100 nM
[3]
  IC50: < 100 nM
[4]
  IC50: < 500 nM

## CN(C)C/C=C/C(=O)Nc1ccc(C(=O)N[C@H]2CCC[C@@H](Nc3ncc(C#N)c(-c4c[nH]c5ccccc45)n3)C2)nc1 [Compound 110, N-((1S,3R)-3-(5-cyano-4-(1H-indol-3-yl)pyrimidin-2-ylamino)cyclohexyl)-5-((E)-4-(dimethylamino)but-2-enamido)picolinamide]
[1]; Homo sapiens
  IC50: < 500 nM
[2]
  IC50: < 100 nM
[3]
  IC50: < 100 nM
[4]; Homo sapiens
  IC50: < 500 nM

## C=CC(=O)N1CCC(NC[C@@H]2CCC[C@H](Nc3ncc(Cl)c(-c4c[nH]c5ccccc45)n3)C2)CC1 [Compound 212, 1-[4-[[(1R,3S)-3-[[5-chloro-4-(1H-indol-3-yl)pyrimidin-2-yl]amino]cyclohexyl]methylamino]-1-piperidyl]prop-2-en-1-One]
[1]; Homo sapiens
  IC50: > 5000 nM
[2]
  IC50: < 100 nM
[3]
  IC50: < 100 nM
[4]; Homo sapiens
  IC50: < 500 nM

## C=CC(=O)N1CCC[C@@H](C(=O)N[C@H]2CCC[C@@H](Nc3ncc(Cl)c(-c4c[nH]c5ccccc45)n3)C2)C1 [Compound 174, (R)-1-acryloyl-N-((1S,3R)-3-(5-chloro-4-(1H-indol-3-yl)pyrimidin-2-ylamino)cyclohexyl)piperidine-3-carboxamide]
[1]; Homo sapiens
  IC50: < 500 nM
[2]
  IC50: < 100 nM
[3]
  IC50: < 100 nM
[4]; Homo sapiens
  IC50: < 500 nM

## CC1CN(C2CCCC(Nc3ncc(Cl)c(-c4c[nH]c5ccccc45)n3)C2)CCN1C(=O)C=CCN(C)C (stereo not shown) [Compound 230]
[1]
  IC50: 500 to 5000 nM
[2]
  IC50: < 100 nM
[3]
  IC50: < 100 nM
[4]
  IC50: < 500 nM

## 4-trans-acrylamido-N-((1S,3R)-3-(5-chloro-4-(1H-indol-3-yl)pyrimidin-2-ylamino)cyclohexyl)cyclohexanecarboxamide [Compound 117]
[1]
  IC50: < 500 nM
[2]
  IC50: < 100 nM
[3]
  IC50: < 100 nM
[4]
  IC50: < 500 nM
